Data set [1] deals with T1, JAK3 (Homo sapiens, UniProt P52333).
T1 construct: host or cells: Sf9 insect cells (baculovirus)
T1 sequence (P52333 1-1124): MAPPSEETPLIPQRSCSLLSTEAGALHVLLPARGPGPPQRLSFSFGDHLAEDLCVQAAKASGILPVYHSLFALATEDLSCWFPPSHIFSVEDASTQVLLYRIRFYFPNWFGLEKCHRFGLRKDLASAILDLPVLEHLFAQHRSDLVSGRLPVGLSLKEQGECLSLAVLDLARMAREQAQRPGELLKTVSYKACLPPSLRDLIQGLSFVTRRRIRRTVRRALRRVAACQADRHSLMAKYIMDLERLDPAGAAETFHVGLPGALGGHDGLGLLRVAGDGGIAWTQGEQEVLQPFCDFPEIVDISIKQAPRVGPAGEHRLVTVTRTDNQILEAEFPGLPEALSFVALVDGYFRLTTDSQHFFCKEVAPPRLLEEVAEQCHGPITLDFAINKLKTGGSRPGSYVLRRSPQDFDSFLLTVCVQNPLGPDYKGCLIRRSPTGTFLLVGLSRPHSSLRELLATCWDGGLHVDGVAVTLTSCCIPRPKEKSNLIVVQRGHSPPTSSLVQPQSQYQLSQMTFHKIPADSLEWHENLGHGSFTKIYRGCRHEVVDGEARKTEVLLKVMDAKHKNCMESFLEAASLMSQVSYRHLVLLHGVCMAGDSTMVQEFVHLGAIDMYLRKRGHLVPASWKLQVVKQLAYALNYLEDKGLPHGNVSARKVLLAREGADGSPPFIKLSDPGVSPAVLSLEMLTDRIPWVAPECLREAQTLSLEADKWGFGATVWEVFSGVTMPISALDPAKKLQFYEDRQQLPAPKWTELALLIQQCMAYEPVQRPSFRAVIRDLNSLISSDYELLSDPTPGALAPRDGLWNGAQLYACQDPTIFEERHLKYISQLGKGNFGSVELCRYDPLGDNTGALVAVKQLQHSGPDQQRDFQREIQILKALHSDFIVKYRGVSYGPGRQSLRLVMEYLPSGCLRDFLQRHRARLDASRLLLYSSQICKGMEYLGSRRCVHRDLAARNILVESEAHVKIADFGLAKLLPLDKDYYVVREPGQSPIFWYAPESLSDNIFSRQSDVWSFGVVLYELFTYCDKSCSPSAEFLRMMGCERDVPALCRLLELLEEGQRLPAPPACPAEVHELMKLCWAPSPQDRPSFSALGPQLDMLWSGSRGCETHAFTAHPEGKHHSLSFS
Briefly: ADP-Glo kinase inhibition assay, JAK3. It counts as biochemical. Conditions: for remaining activity at 1 µM: 1 μM compound; for remaining activity at 1 µM / remaining activity at 10 µM: percentage of maximum activity of the DMSO control, mean n = 2, 10 µM ATP, read-out: Residual activity JAK3; for remaining activity at 10 µM: 10 μM compound; for Inhibition of JAK3 kinase activity: span over the tested concentrations (1 and 10 μM). The procedure: Kinase enzymatic activities were assayed in 384-well plates using the ADP-Glo^TM assay kit (Promega, Madison, WI, USA) according to the recommendations of the manufacturer. This luminescent ADP detection assay was described by Zegzouti and co-workers and provides a homogeneous and high-throughput screening method to measure kinase activity by quantifying the amount of ADP produced during a kinase reaction. Briefly, the reactions were carried out in a final volume of 6 µL for 30 min at 30 °C in an appropriate kinase buffer (10 mM MgCl2, 1 mM EGTA, 1 mM DTT, 25 mM Tris-HCl pH 7.5, 50 µg/mL heparin), with peptide or protein as substrate in the presence of 10 µM ATP. Peptide substrates were obtained from ProteoGenix (Schiltigheim, France) or Sigma for Histone H1, Poly (L-glutamic acid–L-tyrosine) sodium salt, Casein and MBP. After that, 6 µL of ADP-Glo^TM Kinase Reagent was added to stop the kinase reaction. After an incubation time of 50 min at room temperature (rt), 12 µL of Kinase Detection Reagent was added for one hour at rt. The transmitted signal was measured using the Envision (PerkinElmer, Waltham, MA, USA) microplate luminometer and expressed as Relative Light Units (RLUs). Kinase activities are expressed as percentages of remaining kinase activities detected after treatment with 1 or 10 µM of the tested compounds. The maximum kinase activity was measured in the absence of inhibitor but with an equivalent dose of DMSO (solvent of the tested compounds).
3. Kinase inhibition assays
Kinase enzymatic activities were assayed in 384-well plates using the ADP-GloTM assay kit (Promega, Madison, WI) according to the recommendations of the manufacturer. This luminescent ADP detection assay was described by Zegzouti and co-workers and provides a homogeneous and high-throughput screening method to measure kinase activity by quantifying the amount of ADP produced during a kinase reaction. Briefly, the reactions were carried out in a final volume of 6 µl for 30 min at 30°C in appropriate kinase buffer (10 mM MgCl2, 1 mM EGTA, 1 mM DTT, 25 mM Tris-HCl pH 7.5, 50 µg/mL heparin), with peptide or protein as substrate in the presence of 10 µM ATP. Peptide substrates were obtained from ProteoGenix (Schiltigheim, France) or Sigma for Histone H1, Poly (L-glutamic acid – L-tyrosine) sodium salt, Casein and MBP. After that, 6 µL of ADP-GloTM Kinase Reagent was added to stop the kinase reaction. After an incubation time of 50 min at room temperature (rt), 12 µL of Kinase Detection Reagent was added for 1 h at rt. The transmitted signal was measured using the Envision (PerkinElmer, Waltham, MA) microplate luminometer and expressed in Relative Light Unit (RLU). Kinase activities are expressed in percentages of remaining kinase activities detected after treatment with 1 or 10 µM of the tested compounds. The maximal kinase activity is measured in the absence of inhibitor but with an equivalent dose of DMSO (solvent of the tested compounds).
Table. Human protein kinases tested in the panel: CDK9, HASPIN, PIM1, GSK3b, CK1ε, JAK3, CLK1 […]
Protein Kinase Enzyme Description Substrate1
(Family) (Working concentration)
CDK9/CyclinT Human, recombinant, expressed by Peptide:
(CMGC) baculovirus in Sf9 insect cells […]
CLK1 Human, recombinant, expressed by Peptide: […]
(CMGC) baculovirus in Sf9 insect cells (57.3µM)
DYRK1A Human, recombinant, expressed by Peptide: […]
(CMGC) baculovirus in Sf9 insect cells (10.7µM)
PIM1 Human proto-oncogene, recombinant, Peptide: […]
(CAMK) expressed in bacteria (630 µM)
GSK3 Human, recombinant, expressed by Peptide:
(CMGC) baculovirus in Sf9 insect cells […]pEDEEE 3
HASPIN Human, kinase domain, amino acids 470 to Histone H3 peptide (1-21):
(Other) 798, recombinant, expressed in bacteria […] (8µM)
CK1ε Human, recombinant, expressed by Peptide: […]pAYSITA 2
(CK1) baculovirus in Sf9 insect cells (170µM)
JAK3 Human, recombinant, expressed by Peptide: […]
(TK) baculovirus in Sf9 insect cells (94µM) […]

Molecules are shown by their SMILES.

`COC(=N)c1nc2ccc3c(=O)n(Cc4ccccc4)cnc3c2s1` [Compound 6d, Methyl 7-benzyl-6-oxo-6,7-dihydrothiazolo[4,5-h]quinazoline-2-carbimidate] came in with a melting point of 205 to 206 °C. In data set [1], the remaining activity at 1 µM is 80% and the remaining activity at 10 µM amounted to 92%.

In turn, `COC(=N)c1nc2cc3c(Nc4ccc(OC)cc4F)ncnc3cc2s1` [Compound 15a, Methyl 8-[(2-fluoro-4-methoxyphenyl)amino]thiazolo[4,5-g]quinazoline-2-carbimidate] registered a melting point of 246 to 247 °C. Besides, in data set [1], the remaining activity at 1 µM was determined as 64%, the remaining activity at 10 µM turned out to be 58% and the “Inhibition of JAK3 kinase activity” value is “around 38%”.

`COC(=N)c1nc2cc3c(=O)n(Cc4ccccc4)cnc3cc2s1` [Compound 6a, Methyl 7-benzyl-8-oxo-7,8-dihydrothiazolo[4,5-g]quinazoline-2-carbimidate] displayed a melting point of 213 to 214 °C. Also, in data set [1], the remaining activity at 1 µM came out at 55% and the remaining activity at 10 µM came to 36%.

As for `COC(=N)c1nc2ccc3ncn(Cc4ccccc4)c(=O)c3c2s1` [Compound I, methyl 8-benzyl-9-oxo-8,9-dihydrothiazolo[5,4-f]quinazoline-2-carbimidate, reference compound], in data set [1], the remaining activity at 1 µM amounted to 48% and the remaining activity at 10 µM worked out at 52%.

On to `COC(=N)c1nc2ccc3ncnc(Nc4ccc(OC)cc4F)c3c2s1` [Compound II, methyl 9-[(2-fluoro-4-methoxyphenyl)amino]thiazolo[5,4-f]quinazoline-2-carbimidate, reference compound], for which, in data set [1], the remaining activity at 1 µM was 69% and the remaining activity at 10 µM turned out to be 54%.

`COC(=N)c1nc2cc3ncnc(Nc4ccc(OC)cc4F)c3cc2s1` [Compound 15b, Methyl 8-[(2-fluoro-4-methoxyphenyl)amino]thiazolo[5,4-g]quinazoline-2-carbimidate] showed a melting point of 239 to 240 °C. Besides, in data set [1], the remaining activity at 1 µM was determined as 68%, the remaining activity at 10 µM is 60% and the “Inhibition of JAK3 kinase activity” value is “around 38%”.

Regarding `COC(=N)c1nc2cc3ncn(Cc4ccccc4)c(=O)c3cc2s1` [Compound 6b, Methyl 7-benzyl-8-oxo-7,8-dihydrothiazolo[5,4-g]quinazoline-2-carbimidate], the melting point fell in the range of 244 to 245 °C. For the same molecule, in data set [1], the remaining activity at 1 µM amounted to 92% and the remaining activity at 10 µM was found to be 73%.

`COC(=N)c1nc2c(ccc3c(=O)n(Cc4ccccc4)cnc32)s1` [Compound 6c, Methyl 7-benzyl-6-oxo-6,7-dihydrothiazolo[5,4-h]quinazoline-2-carbimidate] registered a melting point of 213 to 214 °C. Besides, in data set [1], the remaining activity at 1 µM was 59% and the remaining activity at 10 µM came to 44%.

For orientation: melting point means the temperature of the solid-liquid transition.

For the origin of these results see publication PMC11597202, “Novel Thiazole-Fused [4,5-g] or [5,4-g]Quinazolin-8-ones and Their Quinazoline Analogues: Synthesis and Biological Evaluation” (Pharmaceuticals, 2024).
